From patent US9834542B2, “LXR modulators” (BRISTOL-MYERS SQUIBB COMPANY, priority 2013, dated 2017)

Molecular target: T1, LXRβ (Homo sapiens, UniProt P55055)
T1 construct: Co-transfection expression plasmids, comprising full-length LXRα (pCMX-h LXRα[…] or LXRβ (pCMX-hLXRβ)); expressed in transfected cells; host or cells: CV-1 African Green Monkey Kidney Cells
T1 sequence (P55055 1-460): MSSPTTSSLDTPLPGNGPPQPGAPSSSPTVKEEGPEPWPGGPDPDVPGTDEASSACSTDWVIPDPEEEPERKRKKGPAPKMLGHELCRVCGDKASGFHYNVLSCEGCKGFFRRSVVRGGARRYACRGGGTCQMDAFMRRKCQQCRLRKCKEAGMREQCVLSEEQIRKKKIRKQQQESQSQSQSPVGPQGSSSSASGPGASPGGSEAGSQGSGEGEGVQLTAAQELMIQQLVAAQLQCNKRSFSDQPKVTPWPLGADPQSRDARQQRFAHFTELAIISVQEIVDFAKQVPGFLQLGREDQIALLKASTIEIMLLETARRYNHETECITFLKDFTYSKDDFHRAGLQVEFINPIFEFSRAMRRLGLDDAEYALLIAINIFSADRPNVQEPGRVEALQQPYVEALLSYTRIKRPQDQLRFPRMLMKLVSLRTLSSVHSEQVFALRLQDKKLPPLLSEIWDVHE
T1 sequence (P19793 1-462 partner): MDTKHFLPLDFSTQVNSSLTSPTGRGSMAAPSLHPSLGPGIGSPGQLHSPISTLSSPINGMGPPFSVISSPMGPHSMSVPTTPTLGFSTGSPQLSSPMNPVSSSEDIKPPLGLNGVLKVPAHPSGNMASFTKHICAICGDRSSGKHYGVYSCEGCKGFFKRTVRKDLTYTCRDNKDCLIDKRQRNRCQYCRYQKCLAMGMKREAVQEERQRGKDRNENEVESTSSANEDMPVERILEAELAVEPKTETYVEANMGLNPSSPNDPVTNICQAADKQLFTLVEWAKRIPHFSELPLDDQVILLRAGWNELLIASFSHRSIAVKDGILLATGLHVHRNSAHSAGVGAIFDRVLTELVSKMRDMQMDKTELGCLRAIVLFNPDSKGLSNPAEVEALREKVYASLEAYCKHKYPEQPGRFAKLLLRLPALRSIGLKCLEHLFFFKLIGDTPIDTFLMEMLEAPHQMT
Assay: Co-transfection assay (LXRE luciferase reporter), LXRβ
Format: cell-based
Conditions: for EC50: CV-1 cells transfected with pCMX-hLXRβ and LXREx1-Tk-Luciferase, 20 hours incubation; for Emax: LXRβ co-transfection, relative to high control 1-(2,4-difluorobenzyl)-2-oxo-6-(4-phenoxyphenyl)-4-(trifluoromethyl)-1,2-dihydropyridine-3-carbonitrile, read-out: % Efficacy
How it was run: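 CV-1 cells transiently co-transfected with full-length human LXRβ expression plasmid, LXREx1-Tk-luciferase reporter and β-galactosidase control, then exposed to compound for 20 h at 37 °C. Luciferase luminescence read; EC50 from 11-point, ½-log dose–response fit, efficacy relative to high-control agonist maximum.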

| Structure (SMILES) | EC50 | Emax |
| --- | --- | --- |
| Cc1nc(C(F)F)cn1-c1ccc(-c2cc(F)c(CO)c(S(C)(=O)=O)c2)cc1-c1cnnn1Cc1ccc(Cl)cc1 [Example 248, (3′-(1-(4-chlorobenzyl)-1H-1,2,3-triazol-5-yl)-4′-(4-(difluoromethyl)-2-methyl-1H-imidazol-1-yl)-3-fluoro-5-(methylsulfonyl)-[1,1′-biphenyl]-4-yl)methanol] | 185 nM | 88% |
| Cc1nc(-c2cc(-c3cc(F)c(CO)c(S(C)(=O)=O)c3)ccc2-n2cc(C(F)(F)F)nc2C)c(-c2ccc3c(c2)CCC3)o1 [Example 475, (3′-(5-(2,3-dihydro-1H-inden-5-yl)-2-methyloxazol-4-yl)-3-fluoro-4′-(2-methyl-4-(trifluoromethyl)-1H-imidazol-1-yl)-5-(methylsulfonyl)biphenyl-4-yl)methanol] | 69 nM | 56% |
| Cc1nc(C(F)(F)F)cn1-c1ccc(-c2cc(F)c(CO)c(S(C)(=O)=O)c2)cc1-c1cnnn1-c1ccc(OC(F)(F)F)cc1 [Example 244, [3-fluoro-5-(methylsulfonyl)-4′-[2-methyl-4-(trifluoromethyl)-1H-imidazol-1-yl]-3′-(1-{4-[(trifluoromethyl)oxy]phenyl}-1H-1,2,3-triazol-5-yl)biphenyl-4-yl]methanol] | 223 nM | 110% |
| CCOc1ncc(-c2oc(C)nc2-c2cc(-c3cc(F)c(CO)c(S(C)(=O)=O)c3)ccc2-n2cc(C(F)(F)F)nc2C)cc1F [Example 472, (3′-(5-(6-ethoxy-5-fluoropyridin-3-yl)-2-methyloxazol-4-yl)-3-fluoro-4′-(2-methyl-4-(trifluoromethyl)-1H-imidazol-1-yl)-5-(methylsulfonyl)biphenyl-4-yl)methanol] | 199 nM | 50% |
| CNS(=O)(=O)c1cccc(-c2ccc(-n3cc(C(F)F)nc3C)c(-n3nncc3C(C)c3ccc(Cl)cc3)c2)c1 (centres unmarked) [Example 130, 3′-{5-[1-(4-chlorophenyl)ethyl]-1H-1,2,3-triazol-1-yl}-4′-[4-(difluoromethyl)-2-methyl-1H-imidazol-1-yl]-N-methylbiphenyl-3-sulfonamide] | 896 nM | 68% |
| CCCc1nc(-c2cc(-c3cccc(S(C)(=O)=O)c3)ccc2-n2cc(C(F)(F)F)nc2C)c(-c2ccc(OC(F)(F)F)cc2)o1 [Example 520, 4-(4-(2-methyl-4-(trifluoromethyl)-1H-imidazol-1-yl)-3′-(methylsulfonyl)-[1,1′-biphenyl]-3-yl)-2-propyl-5-(4-(trifluoromethoxy)phenyl)oxazole] | 22 nM | 86% |
| CCCc1nc(-c2cc(-c3cc(F)c(CO)c(S(C)(=O)=O)c3)ccc2-n2cc(C(F)(F)F)nc2C)c(-c2ccc(OC(F)(F)F)cc2)o1 [Example 557, (3-fluoro-4′-(2-methyl-4-(trifluoromethyl)-1H-imidazol-1-yl)-5-(methylsulfonyl)-3′-(2-propyl-5-(4-(trifluoromethoxy)phenyl)oxazol-4-yl)-[1,1′-biphenyl]-4-yl)methanol] | 14 nM | 82% |
| CCc1nc(C(F)(F)F)cn1-c1ccc(-c2cccc(S(C)(=O)=O)c2)cc1-n1nncc1-c1ccc(OC(F)(F)F)cc1 [Example 227, 1-(4-(2-ethyl-4-(trifluoromethyl)-1H-imidazol-1-yl)-3′-(methylsulfonyl)-[1,1′-biphenyl]-3-yl)-5-(4-(trifluoromethoxy)phenyl)-1H-1,2,3-triazole] | 865 nM | 118% |
| Cc1nc(C(F)(F)F)cn1-c1ccc(-c2cccc(S(C)(=O)=O)c2)cc1-c1nc(C(F)(F)F)cn1-c1ccc(Cl)cc1 [Example 644, 1-(4-chlorophenyl)-2-(4-(2-methyl-4-(trifluoromethyl)-1H-imidazol-1-yl)-3′-(methylsulfonyl)biphenyl-3-yl)-4-(trifluoromethyl)-1H-imidazole] | 408 nM | 37% |
| Cc1nc(-c2cc(-c3cc(F)c(CCO)c(S(C)(=O)=O)c3)ccc2-n2cc(C(F)(F)F)nc2C)c(-c2ccc(OC(F)(F)F)cc2)o1 [Example 529, 2-(3-fluoro-4′-(2-methyl-4-(trifluoromethyl)-1H-imidazol-1-yl)-3′-(2-methyl-5-(4-(trifluoromethoxy)phenyl)oxazol-4-yl)-5-(methylsulfonyl)-[1,1′-biphenyl]-4-yl)ethanol] | 54 nM | 101% |
| Cc1nc(-c2cc(-c3cccc(S(C)(=O)=O)c3)ccc2-n2cc(C(F)(F)F)nc2C)c(-c2ccc(OC(F)F)c(OC(F)F)c2)o1 [Example 392, 5-(3,4-bis(difluoromethoxy)ohenyl)-2-methyl-4-(4-(2-methyl-4-(trifluoromethyl)-1H-imidazol-1-yl)-3′-(methylsulfonyl)biphenyl-3-yl)oxazole] | 187 nM | 53% |
| Cc1nc(C(F)(F)F)cn1-c1ccc(-c2cc(F)c(CO)c(S(C)(=O)=O)c2)cc1-n1nncc1C(=O)c1ccc(C(F)(F)F)cc1 [Example 141, (1-{3′-fluoro-4′-(hydroxymethyl)-5′-(methylsulfonyl)-4-[2-methyl-4-(trifluoromethyl)-1H-imidazol-1-yl]biphenyl-3-yl}-1H-1,2,3-triazol-5-yl)[4-(trifluoromethyl)phenyl]meth-anone] | 619 nM | 106% |
| Cc1nc(C(F)(F)F)cn1-c1ccc(-c2cccc(S(C)(=O)=O)c2)cc1-n1nncc1-c1ccc(SC(F)(F)F)cc1 [Example 32, 1-{3′-(methylsulfonyl)-4-[2-methyl-4-(trifluoromethyl)-1H-imidazol-1-yl]biphenyl-3-yl}-5-{4-[(trifluoromethyl)thio]phenyl}-1H-1,2,3-triazole] | 633 nM | 84% |
| COCc1ccc(-c2ccc(-n3cc(C(F)(F)F)nc3C)c(-n3nncc3-c3ccc(OC(F)(F)F)cc3)c2)cc1S(C)(=O)=O [Example 89, 1-{4′-[(methyloxy)methyl]-3′-(methylsulfonyl)-4-[2-methyl-4-(trifluoromethyl)-1H-imidazol-1-yl]biphenyl-3-yl}-5-{4-[(trifluoromethyl)oxy]phenyl}-1H-1,2,3-triazole] | 316 nM | 83% |
| Cc1nc(C(F)(F)F)cn1-c1ccc(-c2ccc(CO)c(S(C)(=O)=O)c2)cc1-c1oc(CCO)nc1-c1ccc(OC(F)(F)F)cc1 [Example 613, 2-(5-(4′-(hydroxymethyl)-4-(2-methyl-4-(trifluoromethyl)-1H-imidazol-1-yl)-3′-(methylsulfonyl)-[1,1′-biphenyl]-3-yl)-4-(4-(trifluoromethoxy)phenyl)oxazol-2-yl)ethanol] | 1160 nM | 62% |
| Cc1nc(-c2cc(-c3cc(F)c(CO)c(S(C)(=O)=O)c3)ccc2-n2cc(C(C)(C)O)nc2C)c(-c2ccc3c(c2)OC(F)(F)O3)o1 [Example 370, 2-(1-(3-(5-(2,2-difluorobenzo[d][1,3]dioxol-5-yl)-2-methyloxazol-4-yl)-3′-fluoro-4′-(hydroxymethyl)-5′-(methylsulfonyl)biphenyl-4-yl)-2-methyl-1H-imidazol-4-yl)propan-2-ol] | 1040 nM | 26% |
| Cc1nc(C(F)(F)F)cn1-c1ccc(-c2cccc(S(C)(=O)=O)c2)cc1-n1nncc1-c1ccc(Cl)cc1F [Example 39, 5-(4-chloro-2-fluorophenyl)-1-{3′-(methylsulfonyl)-4-[2-methyl-4-(trifluoromethyl)-1H-imidazol-1-yl]biphenyl-3-yl}-1H-1,2,3-triazole] | 860 nM | 92% |
| Cc1nc(-c2cc(-c3cc(F)c(CO)c(S(C)(=O)=O)c3)ccc2-n2cc(C(F)(F)F)nc2C)c(-c2cccnc2C2CC2)o1 [Example 391] | 207 nM | 51% |
| Cc1nc(-c2cc(-c3cccc(C(=O)N(C)C)c3)ccc2-n2cc(C(F)(F)F)nc2C)c(-c2ccc3c(c2)OC(F)(F)O3)o1 [Example 418, 3′-(5-(2,2-difluorobenzo[d][1,3]dioxol-5-yl)-2-methyloxazol-4-yl)-N,N-dimethyl-4′-(2-methyl-4-(trifluoromethyl)-1H-imidazol-1-yl)biphenyl-3-carboxamide] | 740 nM | 73% |
